Results from patent publication US12336991B2, “Factor XIIA inhibitors” (UNIVERSITY OF LEEDS, priority 2018, dated 2025).

Tests used:
Format in all cases: biochemical
thrombin = target: T1, thrombin (Homo sapiens, UniProt P00734); assay: Determination of selectivity: thrombin inhibition, chromogenic substrate GPR assay; details: fold selectivity for FXIIa over thrombin
T1 construct: FXa (5 nM) and thrombin (5 nM)
Method in brief: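 Thrombin (5 nM) preincubated with compound 10 min at 37 °C in 50 mM Tris, 137 mM NaCl, pH 7.4, 5% DMSO, then GPR substrate ([…]) added. Absorbance at 405 nm read kinetically for 3 h; IC50 from initial rates, converted to Ki via Ki=IC50/(1+[S]/Km).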

FXa = FXa (Homo sapiens, UniProt P00742); assay: Determination of selectivity: FXa inhibition, chromogenic substrate S2765 assay; details: fold selectivity for FXIIa over FXa
Sequence of FXa (P00742 235-488 limits assumed): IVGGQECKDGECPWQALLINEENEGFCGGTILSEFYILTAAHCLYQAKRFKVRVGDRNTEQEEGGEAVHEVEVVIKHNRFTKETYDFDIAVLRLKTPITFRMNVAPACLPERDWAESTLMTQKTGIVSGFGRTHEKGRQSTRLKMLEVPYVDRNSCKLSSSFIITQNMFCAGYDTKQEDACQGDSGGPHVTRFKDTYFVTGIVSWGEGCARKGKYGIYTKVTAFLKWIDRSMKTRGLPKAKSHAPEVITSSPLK
Sequence of FXa (P00742 41-179 partner limits assumed): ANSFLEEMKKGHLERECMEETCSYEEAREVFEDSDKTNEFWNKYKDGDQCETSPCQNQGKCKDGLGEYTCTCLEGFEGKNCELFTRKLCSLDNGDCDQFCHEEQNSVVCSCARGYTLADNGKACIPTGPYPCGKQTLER
Method in brief: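 Human FXa (5 nM) preincubated with compound (top 500 μM, 5% DMSO) 10 min at 37 °C in 50 mM Tris, 137 mM NaCl pH 7.4, then S2765 ([…]) added; A405 kinetics over 3 h at 37 °C. IC50 from initial rates, converted to Ki via Cheng-Prusoff.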

FXIIa = target: T2, FXIIa (Homo sapiens, UniProt P00748); assay: Determination of Factor XIIa inhibition, chromogenic substrate S-2302 assay; details: human FXIIa alpha
T2 sequence (P00748 373-615 limits assumed): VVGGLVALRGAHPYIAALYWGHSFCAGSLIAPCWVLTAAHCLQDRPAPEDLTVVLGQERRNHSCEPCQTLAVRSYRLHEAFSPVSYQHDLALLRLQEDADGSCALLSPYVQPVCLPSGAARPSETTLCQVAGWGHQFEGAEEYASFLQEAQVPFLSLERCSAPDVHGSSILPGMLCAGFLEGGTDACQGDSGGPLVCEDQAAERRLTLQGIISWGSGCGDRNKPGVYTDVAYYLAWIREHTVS
T2 sequence (P00748 20-372 partner limits assumed): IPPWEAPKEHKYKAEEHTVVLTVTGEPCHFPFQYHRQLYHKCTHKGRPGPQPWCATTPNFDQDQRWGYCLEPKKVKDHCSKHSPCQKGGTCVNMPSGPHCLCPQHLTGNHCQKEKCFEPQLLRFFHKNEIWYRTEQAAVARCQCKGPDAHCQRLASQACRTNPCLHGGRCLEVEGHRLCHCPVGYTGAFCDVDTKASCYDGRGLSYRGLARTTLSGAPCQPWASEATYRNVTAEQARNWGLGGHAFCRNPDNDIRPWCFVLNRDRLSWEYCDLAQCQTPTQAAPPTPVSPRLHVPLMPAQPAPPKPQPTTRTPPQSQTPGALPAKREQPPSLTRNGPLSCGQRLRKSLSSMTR
Method in brief: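 FXIIa (10 nM) preincubated with compound 10 min at 37° C. in 50 mM Tris, 137 mM NaCl pH 7.4, 5% DMSO, top concentration 500 μM, then S-2302 added ([…]). Absorbance at 405 nm read kinetically for 3 h; IC50 from initial rates, converted to Ki by Cheng-Prusoff.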

Structure (SMILES)	FXa (human)/FXIIa alpha (human) (FXa)	Ki (FXIIa)	Thrombin (human)/FXIIa alpha (human) (thrombin)
COc1ccc(C[C@@H]2C[C@@H](C(=O)NCc3ccc4c(c3)nnn4C)N(C(=O)C3NCCc4cc(Br)ccc43)C2)cc1 (stereo partly drawn) [Example M05470]	∘∘∘	< 200 nM	+++ (fold selectivity values greater than 100)
COc1ccc(C[C@@H]2C[C@@H](C(=O)NCc3ccc4c(c3)nnn4C)N(C(=O)[C@H](N)CCC(=O)N3CCC[C@H]3C(C)C)C2)cc1 [Example M05407]	∘∘∘	< 200 nM	+++ (fold selectivity values greater than 100)
Cn1nc(Cl)c2cc(CNC(=O)[C@@H]3C[C@@H](Cc4cccnc4)CN3C(=O)[C@H](N)CCC(=O)N3CCCC3)ccc21 [Example M05224]	∘∘∘	< 200 nM	+++ (fold selectivity values greater than 100)
COc1ccc(C[C@@H]2C[C@@H](C(=O)NCc3ccc4c(C)nn(C)c4c3)N(C(=O)[C@H](N)CCC(=O)N3CCCC3)C2)cc1 [Example M05448]	∘∘∘	200 to 2000 nM	+++ (fold selectivity values greater than 100)
COc1ccc(C[C@@H]2C[C@@H](C(=O)NCc3ccc4c(c3)nnn4C)N(C(=O)[C@H]3C[C@@H](N4CCCCC4)CN3)C2)cc1 [Example M00955]	∘∘∘	200 to 2000 nM	+++ (fold selectivity values greater than 100)
CN(C)[C@H](CCC(=O)N1CCCC1)C(=O)N1C[C@H](Cc2cccnc2)C[C@H]1C(=O)NCc1ccc2c(c1)nnn2C [Example M05222]	∘∘∘	200 to 2000 nM	+++ (fold selectivity values greater than 100)
COc1ccc(C[C@@H]2C[C@@H](C(=O)NCc3ccc4c(c3)nnn4C)N(C(=O)[C@H](N)CCC(=O)N3C4CCC3COC4)C2)cc1 [Example M05411]	∘∘∘	200 to 2000 nM	+++ (fold selectivity values greater than 100)
Cn1nnc2cc(CNC(=O)[C@@H]3C[C@H](c4ccc(F)cc4)CN3C(=O)[C@H](N)CCc3ccccc3)ccc21 [Example M05157]	∘∘	> 2000 nM	++ (fold selectivity value of 10 to 100)
COc1ccc(C[C@@H]2C[C@@H](C(=O)NCc3cc4ccncc4[nH]3)N(C(=O)[C@H]3C[C@@H](c4ccccc4)CN3)C2)cc1 [Example M00953]	∘∘∘	< 200 nM	++ (fold selectivity value of 10 to 100)
Cn1nnc2cc(CNC(=O)[C@@H]3C[C@@H](Cc4cccc(Br)c4)CN3C(=O)[C@H]3C[C@@H](c4ccccc4)CN3)ccc21 [Example M05366]	∘∘	200 to 2000 nM	++ (fold selectivity value of 10 to 100)
COc1ccc(C[C@@H]2C[C@@H](C(=O)NCc3ccc4c(c3)nnn4C)N(C(=O)[C@H]3C[C@@H](Oc4ccccc4)CN3)C2)cc1 [Example M05351]	∘∘	> 2000 nM	++ (fold selectivity value of 10 to 100)
Cn1nnc2cc(CNC(=O)[C@@H]3C[C@@H](Cc4ccc(Cl)cc4Cl)CN3C(=O)[C@H]3C[C@@H](c4ccccc4)CN3)ccc21 [Example M05373]	∘∘	200 to 2000 nM	++ (fold selectivity value of 10 to 100)
COc1ccc(C[C@@H]2C[C@@H](C(=O)NCc3ccc4c(c3)nnn4C)N(C(=O)[C@H]3CC(c4ccnn4C)CN3)C2)cc1 (stereo partly drawn) [Example M05376]	∘∘	> 2000 nM	++ (fold selectivity value of 10 to 100)
Cn1nnc2cc(CNC(=O)[C@@H]3C[C@@H](Cc4ccc(Br)cc4)CN3C(=O)[C@H](N)CCC(=O)N3CCCC3)ccc21 [Example M05326]	∘∘∘	< 200 nM	+++ (fold selectivity values greater than 100)
Cn1nnc2cc(CNC(=O)[C@@H]3C[C@@H](Cc4cccc(-c5ccncc5)c4)CN3C(=O)[C@H](N)CCC(=O)N3CCCC3)ccc21 [Example M05323]	∘∘∘	< 200 nM	+++ (fold selectivity values greater than 100)
COc1ccc(C[C@@H]2C[C@@H](C(=O)NCc3ccc4c(c3)nnn4C)N(C(=O)[C@H]3C[C@@H](c4ccncc4)CN3)C2)cc1 [Example M05353]	∘∘	> 2000 nM	++ (fold selectivity value of 10 to 100)
COc1ccc(C[C@@H]2C[C@@H](C(=O)NCc3ccc4c(c3)nnn4C)N(C(=O)[C@H]3CC(c4ccc(C(F)(F)F)cc4)CN3)C2)cc1 (stereo partly drawn) [Example M05345]	∘∘	> 2000 nM	++ (fold selectivity value of 10 to 100)
Cn1nnc2cc(CNC(=O)[C@@H]3CC(Cc4ccccc4Br)CN3C(=O)[C@H]3C[C@@H](c4ccccc4)CN3)ccc21 (stereo partly drawn) [Example M05329]	∘∘	> 2000 nM	++ (fold selectivity value of 10 to 100)
Cn1nnc2cc(CNC(=O)[C@@H]3C[C@@H](Cc4cccc(C(F)(F)F)c4)CN3C(=O)[C@H]3C[C@@H](c4ccccc4)CN3)ccc21 [Example M05356]	∘∘	> 2000 nM	++ (fold selectivity value of 10 to 100)

Further lines, with some results ahead:

FXa (human)/FXIIa alpha (human) (FXa)	Ki (FXIIa)	Structure (SMILES)	Thrombin (human)/FXIIa alpha (human) (thrombin)
∘∘	> 2000 nM	NCc1ccc(CNC(=O)[C@@H]2CCCN2C(=O)[C@H](N)CCN2CCCCC2)cc1 [Example M00801]	++ (fold selectivity value of 10 to 100)
∘∘	> 2000 nM	NCc1ccc(CNC(=O)[C@@H]2C[C@H](O)CN2C(=O)[C@H](N)CCc2ccccc2)cn1 [Example M05054]	++ (fold selectivity value of 10 to 100)
∘∘∘	200 to 2000 nM	COc1ccc(C[C@@H]2C[C@@H](C(=O)NCc3ccc4c(c3)nnn4C)N(C(=O)[C@H](N)CCC(=O)N3CCNCC3)C2)cc1 [Example M05393]	+++ (fold selectivity values greater than 100)
∘∘	> 2000 nM	COc1ccc(C[C@@H]2C[C@@H](C(=O)NCc3ccc4c(c3)nnn4C)N(C(=O)[C@H]3CC(c4c(C)noc4C)CN3)C2)cc1 (stereo partly drawn) [Example M05409]	+ (fold selectivity values less than 10)
∘∘∘	< 200 nM	COc1ccc(CC2C[C@@H](C(=O)NCc3ccc4c(c3)nnn4C)N(C(=O)[C@H](N)CCC(=O)N3CCCC3)C2)cc1Cl (stereo partly drawn) [Example M05298]	+++ (fold selectivity values greater than 100)
∘∘∘	< 200 nM	COc1ccc(C[C@@H]2C[C@@H](C(=O)NCc3ccc4c(c3)nnn4C)N(C(=O)[C@H](N)CCC(=O)N3CCCC3C(F)(F)F)C2)cc1 (stereo partly drawn) [Example M05392]	+++ (fold selectivity values greater than 100)
∘∘	> 2000 nM	Cn1nnc2cc(CNC(=O)[C@@H]3C[C@@H](Cc4ccc(F)cc4)CN3C(=O)C3C[C@@H](c4ccccc4)CN3)ccc21 (stereo partly drawn) [Example M05324]	++ (fold selectivity value of 10 to 100)
∘∘∘	< 200 nM	Cn1nnc2cc(CNC(=O)[C@@H]3C[C@@H](Cc4ccc(F)cc4F)CN3C(=O)[C@H](N)CCC(=O)N3CCCC3)ccc21 [Example M05235]	+++ (fold selectivity values greater than 100)
∘∘∘	< 200 nM	Cn1nnc2cc(CNC(=O)[C@@H]3C[C@@H](Cc4cccc(Br)c4)CN3C(=O)[C@H](N)CCC(=O)N3CCCC3)ccc21 [Example M05317]	+++ (fold selectivity values greater than 100)
